Columns and labels:
[1] = biological target: T1, hEP2 (Homo sapiens, UniProt P43116); experiment: hEP2 cAMP assay; format: cell-based; details: HEK293 cells overexpressing hEP2; PGE2 agonist 400 pM; graded per Table 21; read-out: IC50 (nM) EP2 cAMP
T1 construct: expressed in transfected cells; host or cells: HEK293
Method: (§1) HEK293 cells overexpressing hEP2 were cultured in growth medium (GM: MEM (Gibco™, 11095080)/10% HI FBS (Gibco™, 10082147)/1% penicillin/streptomycin). Before the experiment, the growth medium was removed, and starvation medium (HBSS (Gibco™, 14025076)/10% GM) was added. Thereafter, the cells were incubated for 4 hours. The HEK293 cells harboring hEP2 were detached from the culture dish with a non-enzymatic cell dissociation buffer (Gibco™, 15040066). The cells were resuspended in assay buffer (AB: HBSS, 0.1% BSA stabilizer, 0.5 mM IBMX, 5 mM HEPES).
(§2) 1,000 cells in 5 μL of AB were seeded per well in a 384 well plate (Corning™, 3570), and stock solutions of test compounds were prepared at a concentration of 1 mM in DMSO and serially diluted in DMSO to the concentration required for the inhibition dose response curve (test concentration range of 10 μM-0.001 nM). PGE2 (Sigma, P0409, stock solution: 1 μM) was used as an agonist at a final concentration of 400 pM corresponding to EC50-80. 2.5 μL of the diluted compound and 2.5 μL of PGE2 (400 pM final concentration) were transferred to the assay plate, and then the plate was incubated at room temperature for 12 minutes.
(§3) 5 μL of each donor (Eu-cAMP tracer) and acceptor (ULight-anti-cAMP) was added, and the plate was incubated in the dark for 1 hour at room temperature, and then a Varioskan LUX multimode microplate reader was used to obtain the results (excitation: 334 nm, emission: 615 and 665 nm). The resulting FRET fluorescence value (665 nm/615 nm*10000) was converted and then calculated as a percentage of cAMP relative to the DMSO control value. IC50 values and curves were generated with GraphPad Prism software using log (inhibitor) versus response-variable slopes (4 parameters), and the median of multiple experiments was taken as the experiment result.

[2] = biological target: T2, hEP4 (Homo sapiens, UniProt P35408); experiment: hEP4 cAMP assay; format: cell-based; details: HEK293 cells overexpressing hEP4; PGE2 agonist 20 nM; graded per Table 21; read-out: IC50 (nM) EP4 cAMP
T2 construct: expressed in transfected cells; host or cells: HEK293
T2 sequence (P35408 whole entry): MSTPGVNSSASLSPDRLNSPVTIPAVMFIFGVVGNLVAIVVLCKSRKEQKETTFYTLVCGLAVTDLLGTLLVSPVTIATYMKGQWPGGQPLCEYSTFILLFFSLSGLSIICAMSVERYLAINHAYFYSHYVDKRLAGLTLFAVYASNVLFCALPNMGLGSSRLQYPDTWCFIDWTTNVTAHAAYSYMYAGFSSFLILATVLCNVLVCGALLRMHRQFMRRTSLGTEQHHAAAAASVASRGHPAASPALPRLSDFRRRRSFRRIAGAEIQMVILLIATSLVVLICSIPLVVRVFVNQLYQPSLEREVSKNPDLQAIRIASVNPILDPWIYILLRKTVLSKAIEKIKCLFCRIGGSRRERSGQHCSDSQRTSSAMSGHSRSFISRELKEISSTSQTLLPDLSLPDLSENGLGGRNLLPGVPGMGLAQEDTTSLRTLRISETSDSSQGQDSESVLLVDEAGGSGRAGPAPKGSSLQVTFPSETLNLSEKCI
Method: as §1, with “overexpressing hEP4” for “overexpressing hEP2”, “(HBSS (Gibco™” for “(HBSS (Gibco™,”, “hours.” for “hours. The”, “harboring hEP4” for “harboring hEP2”
as §2, with “plate (Corning®,” for “plate (Corning™,”, “solution: 100” for “solution: 1”, “of 20 nM” for “of 400 pM”, “PGE2 (20 nM” for “PGE2 (400 pM”, “for 18.5” for “for 12”
as §3, with “compared” for “relative”, “slope” for “slopes”

T1 sequence (P43116 whole entry): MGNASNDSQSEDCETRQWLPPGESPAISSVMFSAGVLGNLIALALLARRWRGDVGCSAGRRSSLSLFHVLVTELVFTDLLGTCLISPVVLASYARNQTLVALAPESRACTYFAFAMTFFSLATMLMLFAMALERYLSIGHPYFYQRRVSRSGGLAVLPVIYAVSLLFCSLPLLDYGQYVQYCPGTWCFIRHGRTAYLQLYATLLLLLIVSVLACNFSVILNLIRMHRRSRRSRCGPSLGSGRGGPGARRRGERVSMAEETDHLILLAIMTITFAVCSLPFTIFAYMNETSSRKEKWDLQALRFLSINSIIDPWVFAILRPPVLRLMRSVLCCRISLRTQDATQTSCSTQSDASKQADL

Structure (SMILES)	IC50 [1] [nM]	IC50 [2] [nM]
Cc1sc(C)c(C(=O)N[C@H]2CC3(C2)C[C@H](C(=O)O)C3)c1Cc1ccc(-c2ccccc2)cc1 (single isomer, unassigned) [Example 1a]	> 10000	> 10000
Cc1sc(C)c(C(=O)N[C@H]2CC3(C2)C[C@H](C(=O)O)C3)c1Cc1ccc(-c2ccccc2)cc1 (single isomer, unassigned) [Example 1b]	500 to 5000	< 500
Cc1sc(C)c(C(=O)NC2CC3(C2)CC(C(=O)O)C3)c1Cc1ccc(-c2ccccc2)cc1 (stereo not shown) [Example 1, 6-(4-([1,1′-biphenyl]-4-ylmethyl)-2,5-dimethylthiophene-3-carboxamido)spiro[3.3]heptane-2-carboxylic acid]	500 to 5000	< 500
Cc1ccc(Cc2c(C)sc(C)c2C(=O)NC2CC3(C2)CC(C(=O)O)C3)cc1 (stereo not shown) [Example 2, 6-(2,5-dimethyl-4-(4-methylbenzyl)thiophene-3-carboxamido)spiro[3.3]heptane-2-carboxylic acid]	> 10000	> 10000
Cc1sc(C)c(C(=O)NC2CC3(C2)CC(C(=O)O)C3)c1Cc1cccc(-c2ccccc2)c1 (stereo not shown) [Example 3, 6-(4-([1,1′-biphenyl]-3-ylmethyl)-2,5-dimethylthiophene-3-carboxamido)spiro[3.3]heptane-2-carboxylic acid]	> 10000	5000 to 10000
Cc1sc(C)c(C(=O)NC2CC3(C2)CC(C(=O)O)C3)c1Cc1ccccc1-c1ccccc1 (stereo not shown) [Example 4, 6-(4-([1,1′-biphenyl]-2-ylmethyl)-2,5-dimethylthiophene-3-carboxamido)spiro[3.3]heptane-2-carboxylic acid]	> 10000	> 10000
Cc1sc(C)c(C(=O)NC2CC3(C2)CC(C(=O)O)C3)c1Cc1ccc(Oc2ccccc2)cc1 (stereo not shown) [Example 5, 6-(2,5-dimethyl-4-(4-phenoxybenzyl)thiophene-3-carboxamido)spiro[3.3]heptane-2-carboxylic acid]	> 10000	5000 to 10000
Cc1sc(C)c(C(=O)NC2CC3(C2)CC(C(=O)O)C3)c1CCc1ccc(-c2ccccc2)cc1 (stereo not shown) [Example 6, 6-(4-(2-([1,1′-biphenyl]-4-yl)ethyl)-2,5-dimethylthiophene-3-carboxamido)spiro[3.3]heptane-2-carboxylic acid]	> 10000	> 10000
Cc1sc(C)c(C(=O)NC2CC3(C2)CC(C(=O)O)C3)c1Cc1ccc(-c2ccccc2)cc1F (stereo not shown) [Example 7, 6-(4-((3-fluoro-[1,1′-biphenyl]-4-yl)methyl)-2,5-dimethylthiophene-3-carboxamido)spiro[3.3]heptane-2-carboxylic acid]	500 to 5000	< 500
Cc1sc(C)c(C(=O)NC2CC3(C2)CC(C(=O)O)C3)c1Cc1ccc(N2CCOCC2)cc1 (stereo not shown) [Example 9, 6-(2,5-dimethyl-4-(4-morpholinobenzyl)thiophene-3-carboxamido)spiro[3.3]heptane-2-carboxylic acid]	> 10000	> 10000
Cc1sc(C)c(C(=O)c2ccc(-c3ccccc3)cc2)c1C(=O)NC1CC2(C1)CC(C(=O)O)C2 (stereo not shown) [Example 10, 6-(4-([1,1′-biphenyl]-4-carbonyl)-2,5-dimethylthiophene-3-carboxamido)spiro[3.3]heptane-2-carboxylic acid]	> 10000	500 to 5000
Cc1sc(C)c(C(O)c2ccc(-c3ccccc3)cc2)c1C(=O)NC1CC2(C1)CC(C(=O)O)C2 (stereo not shown) [Example 11, 6-(4-([1,1′-biphenyl]-4-yl(hydroxy)methyl)-2,5-dimethylthiophene-3-carboxamido)spiro[3.3]heptane-2-carboxylic acid]	> 10000	< 500
COC(c1ccc(-c2ccccc2)cc1)c1c(C)sc(C)c1C(=O)NC1CC2(C1)CC(C(=O)O)C2 (stereo not shown) [Example 12, 6-(4-([1,1′-biphenyl]-4-yl(methoxy)methyl)-2,5-dimethylthiophene-3-carboxamido)spiro[3.3]heptane-2-carboxylic acid]	> 10000	> 10000
O=C(NC1CC2(C1)CC(C(=O)O)C2)c1cscc1Cc1ccc(-c2ccccc2)cc1 (stereo not shown) [Example 13, 6-(4-([1,1′-biphenyl]-4-ylmethyl)thiophene-3-carboxamido)spiro[3.3]heptane-2-carboxylic acid]	500 to 5000	500 to 5000
Cc1scc(Cc2ccc(-c3ccccc3)cc2)c1C(=O)NC1CC2(C1)CC(C(=O)O)C2 (stereo not shown) [Example 14, 6-(4-([1,1′-biphenyl]-4-ylmethyl)-2-methylthiophene-3-carboxamido)spiro[3.3]heptane-2-carboxylic acid]	500 to 5000	500 to 5000
O=C(NC1CC2(C1)CC(C(=O)O)C2)c1csc(Br)c1Cc1ccc(-c2ccccc2)cc1 (stereo not shown) [Example 15, 6-(4-([1,1′-biphenyl]-4-ylmethyl)-5-bromothiophene-3-carboxamido)spiro[3.3]heptane-2-carboxylic acid]	< 500	< 500
O=C(NC1CC2(C1)CC(C(=O)O)C2)c1c(Br)sc(Br)c1Cc1ccc(-c2ccccc2)cc1 (stereo not shown) [Example 16, 6-(4-([1,1′-biphenyl]-4-ylmethyl)-2,5-dibromothiophene-3-carboxamido)spiro[3.3]heptane-2-carboxylic acid]	> 10000	500 to 5000
O=C(NC1CC2(C1)CC(C(=O)O)C2)c1c(Cl)sc(Cl)c1Cc1ccc(-c2ccccc2)cc1 (stereo not shown) [Example 17, 6-(4-([1,1′-biphenyl]-4-ylmethyl)-2,5-dichlorothiophene-3-carboxamido)spiro[3.3]heptane-2-carboxylic acid]	5000 to 10000	< 500

Further lines, results first:

IC50 [1] [nM]	IC50 [2] [nM]	Structure (SMILES)
5000 to 10000	500 to 5000	COc1cc(F)cc(-c2ccc(Cc3c(C)sc(C)c3C(=O)N[C@H]3CC4(C3)C[C@H](C(=O)O)C4)cc2)c1 (single isomer, unassigned) [Example 34a]
< 500	< 500	COc1cc(F)cc(-c2ccc(Cc3c(C)sc(C)c3C(=O)N[C@H]3CC4(C3)C[C@H](C(=O)O)C4)cc2)c1 (single isomer, unassigned) [Example 34b]
500 to 5000	500 to 5000	O=C(N[C@H]1CC2(C1)C[C@H](C(=O)O)C2)c1csc2ccn(Cc3ccc(-c4ccccc4)cc3)c12 (single isomer, unassigned) [Example 79a]
< 500	< 500	O=C(N[C@H]1CC2(C1)C[C@H](C(=O)O)C2)c1csc2ccn(Cc3ccc(-c4ccccc4)cc3)c12 (single isomer, unassigned) [Example 79b]
500 to 5000	> 10000	Cc1sc2ccn(Cc3ccc(-c4ccccc4)cc3)c2c1C(=O)N[C@H]1CC2(C1)C[C@H](C(=O)O)C2 (single isomer, unassigned) [Example 80a]
	< 500	Cc1sc2ccn(Cc3ccc(-c4ccccc4)cc3)c2c1C(=O)N[C@H]1CC2(C1)C[C@H](C(=O)O)C2 (single isomer, unassigned) [Example 80b]
> 10000	500 to 5000	Cc1sc(C)c(C(=O)NC2CC3(C2)CC(C(=O)O)C3)c1Cc1ccc(-c2ccccc2)c(N)c1 (stereo not shown) [Example 8, 6-(4-((2-amino-[1,1′-biphenyl]-4-yl)methyl)-2,5-dimethylthiophene-3-carboxamido)spiro [3.3]heptane-2-carboxylic acid]

Source: US20230365582A1, “NOVEL COMPOUNDS HAVING INHIBITORY ACTIVITY ON PROSTAGLANDIN E2 RECEPTOR AND USES THEREOF” (KANAPH THERAPEUTICS INC., priority 2020, published 2023)
